According to ChEMBL document CHEMBL4725324, “In vitro and in vivo evaluation of the antimalarial MMV665831 and structural analogs” (Bioorg Med Chem Lett, 2020):
Calls of active or inactive are those of the source. The rule behind the calls is not given here.

Legend:
Plasmodium falciparum = experiment: Antimalarial activity against Plasmodium falciparum 3D7 assessed as reduction in parasite growth incubated for 48 hrs; assay type: functional, organism-based; conditions: 3D7, 48 h
[1] = Stability in methanolic diethylamine at 40 degC measured after 2 days 1H-NMR analysis; assay type: physicochemical; conditions: 48 h; time 2 day
[2] = Stability in methanolic diethylamine at 40 degC measured after 2 days HRMS analysis; assay type: physicochemical; conditions: 48 h; time 2 day
[3] = Stability in D2O at 50 degC measured after 7 days HRMS analysis; assay type: physicochemical; conditions: 168 h; time 7 day
[4] = Stability in D2O at 90 degC measured after 1 day HRMS analysis; assay type: physicochemical; conditions: 24 h
[5] = Solubility of compound in D2O; assay type: physicochemical
[6] = Solubility of compound in CDCl3; assay type: physicochemical
[7] = Drug metabolism in 0.1 M DCl in D20 assessed as ethyl 2-benzamido-4-deuterio-6-(dimethylaminomethyl)-7-hydroxy-benzothiophene-3-carboxylate formation at 90 degC after 24 hrs
Plasmodium berghei = experiment: Antimalarial activity against blood-stage Plasmodium berghei infected in mouse assessed as reduction in parasite growth at 40 mg/kg, po; assay type: functional, organism-based
[8] = Stability in mouse plasma assessed as carboxylesterase-mediated reduction in parent compound incubated for over 120 mins; assay type: ADME, cell-free; conditions: 2 h
[9] = Stability in mouse hepatocytes assessed as half life; assay type: ADME, cell-based, Hepatocyte

SMILES | EC50 (Plasmodium falciparum) | other results
CCOC(=O)c1c(NC(=O)c2ccccc2)sc2c(O)c(CN3CCCCC3)ccc12 | 13 nM | 
CCCN(CCC)Cc1ccc2c(C(=O)OCC)c(NC(=O)c3ccccc3)sc2c1O | 16 nM | 
CCOC(=O)c1c(NC(=O)c2ccccc2)sc2c(O)c(CNC34CC5CC(CC(C5)C3)C4)ccc12 | 388 nM | 
CCOC(=O)c1c(NC(=O)c2ccc(Cl)cc2)sc2c(O)c(CN(CC)CC)ccc12 | 70 nM | 
O[C@@H](c1cc(C(F)(F)F)nc2c(C(F)(F)F)cccc12)[C@H]1CCCCN1 [(S,R)-MEFLOQUINE] | 16 nM | 
CCOC(=O)c1c(NC(=O)c2ccccc2)sc2c(O)c(CN3CCCC3)ccc12 | 16 nM | 
CCOC(=O)c1c(NC(=O)c2ccccc2)sc2c(O)c(CN(C)C)ccc12.Cl | 24 nM | Stabilty [1]: Stable; Stabilty [2]: Stable; Stabilty [3]: Stable; Stabilty [4]: Unstable; solubility [5]: Insoluble; solubility [6]: Insoluble; Drug metabolism [7]: Metabolite detected
CCN(CC)Cc1ccc2c(C(=O)NC)c(NC(=O)c3ccccc3)sc2c1O | > 1000 nM | 
CCOC(=O)c1c(NC(=O)c2ccccc2)sc2c(O)c(CN(CC)CC)ccc12 | 27 nM | Activity (Plasmodium berghei): inactive; Stabilty [8]: Stable; t1/2 [9]: 11 min
CCOC(=O)c1c(NC(=O)c2ccccc2)sc2c(O)c(CCN(C)C)ccc12 | 182 nM | 
CCN(CC)Cc1ccc2c(C(=O)OC)c(NC(=O)c3ccccc3)sc2c1O | 53 nM | 
CCOC(=O)c1c(NC(=O)c2ccc(OC)cc2)sc2c(O)c(CN(CC)CC)ccc12 | 66 nM | 
CCOC(=O)c1c(NC(=O)c2ccccc2)sc2c(O)c(CN3CCOCC3)ccc12 | 100 nM | 
CCOC(=O)c1c(NC(=O)c2ccccc2)sc2c(OC)c(CN(CC)CC)ccc12 | > 1000 nM | 
